Experimental data as given in US9526766B2, “Potentiation of antibiotic treatment with a protein-lipid complex” (priority 2012, dated 2016).
Converted amounts (≈) assume the structure as drawn. Where two headings read alike, the source gives them in different places. One block for each compound: values may come before it.

What was measured:
NRS 123 Staphylococci = assay: Membrane potential, DiBAC4(3) fluorescence; type: cell-based, Staphylococcus aureus; settings: Ruthenium Red, Amiloride
Experimental: Assessing membrane potential. Staphylococci grown to late log phase in TSB were pelleted by centrifugation at 2,400×g for 10 minutes and washed twice by resuspension in PBS. The bacterial pellet was resuspended in PBS to half of the original volume and energized with 50 mM glucose for 15 minutes at 37° C. To measure membrane potential of the staphylococcal membrane, 500 nM DiBAC4(3) (bis-(1,3-dibutylbarbituric acid) trimethine oxonol; Molecular Probes, Eugene, Oreg., USA) were added. […] The plate was then placed immediately into a pre-warmed (37° C.) Synergy 2 Multi-Mode Microplate Reader (BioTek) where fluorescence readings from DiBAC4(3) (485/20 nm excitation, 528/20 nm emission) were taken every minute for one hour. The difference in fluorescence intensity between the untreated control and the ALAFAC-treated sample was calculated for the “no inhibitor” samples and for the “inhibitor” samples using the values after 60 minutes. The fluorescence intensity difference for the “inhibitor” samples was then expressed as fold change of the intensity compared with the ALAFAC alone (“no inhibitor”) sample, providing the degree of depolarization compared to the “ALAFAC alone” sample.

Staphylococcus aureus [1] = assay: MIC by broth microdilution, antibiotics with and without ALAFAC; type: cell-based; settings: for MIC: Staphylococcus aureus
Experimental: (§1) Methodology: Minimal inhibitory concentrations (MICs) were determined in 96-well microtiter plates using the microdilution method according to approved standards of the CLSI except that Todd-Hewitt medium supplemented with 0.5% yeast extract, which yields reproducible MIC results was used as the test medium for S. pneumoniae. For the remaining species Mueller-Hinton medium was used as indicated by the CLSI standard. Each well contained two-fold dilutions of antibiotic, was seeded with a final bacterial concentration of 10^5 CFU/mL, and was incubated for 18 h at 37° C. in a Synergy II microplate reader (Biotek, Winooski, Vt.) where the OD600 was recorded every 5 minutes to monitor bacterial growth. The MIC was defined as the lowest concentration of antimicrobial agent solution at which no increase in OD600 was detected.
In vitro susceptibility tests. Minimal inhibitory concentrations (MICs) were determined in 96-well microtiter plates using the microdilution method according to approved standards of the CLSI as described previously. However, rather than Mueller-Hinton broth, Tryptic soy broth (TSB) was used for susceptibility testing as it is the common media used for Staphylococcal growth, and as it has shown more consistent results for a variety of antimicrobials when tested against Staphylococci. […] A two-fold dilution series of antibiotics in triplicate and in the presence or absence of ALAFAC was prepared in 96 well microtiter plates, and each well was seeded with a final bacterial concentration of 10^5 CFU/mL, and was incubated for 24 h at 37° C. in a Synergy 2 microplate reader (Biotek, Winooski, Vt.) where the Optical Density at 600 nm (OD600) was recorded every 5 minutes to monitor bacterial growth. The MIC was defined as the lowest concentration of antimicrobial agent solution where no increase in OD600 was detected.

NRS 384 Staphylococci = assay: Intracellular pH measurement (BCECF-AM); type: cell-based, Staphylococcus aureus; settings: ALAFAC 100 μg/mL (6 μM), RuR 30 μM, Amiloride 1 mM
Excerpt: Intracellular pH measurement. A reported protocol for intracellular pH (pHi) measurement was modified and optimized for S. aureus by testing the effect of various dye concentrations and staining times on the measured fluorescence of S. aureus isolate NRS 384 grown to mid-log phase. Cell samples were subjected to increasing concentrations of the membrane-permeant acetoxymehtyl (AM) ester derivative of the dual-excitation ratiometric pH indicator dye BCECF (2′,7′-bis-(2-carboxyethyl)-5-(and-6)-carboxyfluorescein), for 30 minutes at 30° C. Fluorescence was measured as a ratio of fluorescence at 530 nm with dual wavelength excitation at 490 and 440 nm and calibration curves were established for each independent experiment. After testing a number of loading concentrations we observed that the fluorescence ratios remains generally constant when concentrations above 20 μM was used. Therefore 25 μM BCECF-AM was used for all experiments. The optimized staining time, 30 minutes, was determined using the same criteria and was used for all experiments. After loading, the cells were washed twice in PBS by centrifugation and the resulting pellet was resuspended in PBS to the original volume and ALAFAC and ALAFAC/antibiotic combinations were added. CCCP was added as a positive control. CCCP is a lipophilic weak acid that is soluble in the lipid domain of the membrane in both the protonated and deprotonated form. This allows it to act as a protonophore causing an influx of H^+ into the cytoplasm, dissipating both the electrical potential and the H^+ gradient across the inner membrane. For each experiment calibration was performed where cells were resuspended in high [K^+] buffers at different pH values ranging from 6.5 to 8.0.

Streptococcus pneumoniae [2] = assay: Short-time kill assay on planktonic cultures; type: cell-based; settings: for Bactericidal activity (FIG. 1): 1 hour at 37° C., fatty acids: concentration required to kill versus that associated with the ALAFAC-complex; for Minimum antibiotic concentration for bactericidal (>3 log10) activity, planktonic: within 4-6 hours, antibiotic alone
Experimental: Methodology: In late logarithmic growth phase, the bacteria were harvested by centrifugation at 12,000×g for 10 minutes and resuspended in phosphate-buffered saline (PBS; […], […], […], pH 7.4). Appropriate dilutions of the bacteria were suspended in PBS and treated with indicated concentrations of ALAFAC and/or antibiotics for various times. The effect on bacterial viability was assessed by plating serial dilutions of bacterial sample on tryptic soy agar plates containing 5% sheep blood (viable counts) and determining viable colony forming units after overnight growth at 37° C.
Short-time kill assays. In late logarithmic growth phase, the bacteria were harvested by centrifugation at 12,000×g for 10 minutes and resuspended in phosphate-buffered saline (PBS; 30 mM Na2HPO4, 10 mM KH2PO4, […], pH 7.4). Appropriate concentrations of the bacteria (around 10^8 colony forming units per ml) were suspended in PBS and treated with indicated concentrations of ALAFAC and/or antibiotics for various times. The effect on bacterial viability was assessed by plating serial dilutions of bacterial sample on tryptic soy agar plates containing 5% sheep blood (viable counts) and determining viable CFUs after overnight growth at 37° C.

Staphylococcus aureus [3] = assay: Minimal bactericidal concentration (MBC) from MIC plates; type: cell-based; settings: Staphylococcus aureus
Excerpt: The MBC was defined as the lowest concentration of antimicrobials yielding colony counts <0.1% (3 log10 reduction) of the initial inoculum (as determined by colony counts from the growth control well immediately after inoculation) as described.

Streptococcus pneumoniae [4] = assay: MIC by broth microdilution, antibiotics with and without ALAFAC; type: cell-based; settings: Streptococcus pneumoniae, agent alone, read-out: MIC
Experimental: as §1
In vitro susceptibility tests. Minimal inhibitory concentrations (MICs) were determined in 96-well microtiter plates using the microdilution method according to approved standards of the CLSI except that Todd-Hewitt medium supplemented with 0.5% yeast extract, which yields reproducible MIC results was used as the test medium for S. pneumoniae. MICs for A. baumanni, and M. catarrhalis were determined in MH media. Two-fold dilutions of a starting antibiotic concentration was added in triplicate into microtiter plate wells (in 96-well plates), were seeded with a final bacterial concentration of ˜10^5 colony forming units (CFU)/mL, and was incubated for 18 h in ambient air at 37° C. in a Synergy II microplate reader (Biotek, Winooski, Vt.) where the OD600 was recorded every 5 minutes to monitor bacterial growth. The MIC was defined as the lowest concentration of antimicrobial agent solution at which no increase in OD600 was detected.

[5] = tested on: Streptococcus pneumoniae biofilms; assay: Static biofilm model, viable counts; type: cell-based; settings: for Minimum antibiotic concentration for bactericidal (>3 log10) activity on biofilms: within 4-6 hours, antibiotic alone
Experimental: Methodology: Pneumococci were grown statically in CDM and S. aureus were grown in trypic soy medium to mid-logarithmic phase (OD600=0.5), washed, and resuspended in fresh pre-warmed medium to a density of 2×10^4 CFU in 500 μl volume, and suspensions were used to seed sterile round glass coverslips in the bottom of polystyrene 24-well plates with or without a substratum of confluent H292 epithelial cells. Biofilms were cultured at 34° C. in 5% CO2 for indicated times with change of culture media every 12 hours and to assess biomass and antibiotic resistance by viable counts (as described).
Biofilms were then washed in PBS and detached by scraping the surface in the presence of 100 μL PBS followed by a rinse with 100 μL PBS. Collected cells were sonicated in a sonication water bath for 2 s followed by vortexing twice for 20 seconds at high speed and the dispersed biofilm cells were used to determine viable CFUs per ml from diluted samples plated and grown on blood agar.
Static Biofilm Model. Pneumococci were grown in CDM to mid-logarithmic phase (OD600=0.5), washed, and resuspended in fresh pre-warmed medium to a density of 2×10^4 CFUs in 500 μl volume, and suspensions were used to seed sterile round glass coverslips in the bottom of polystyrene 24-well plates with a substratum of confluent H292 epithelial cells as described. Biofilms were cultured at 34° C. in 5% CO2 for indicated times with change of culture media every 12 hours and used for SEM studies or to assess biomass and antibiotic resistance by viable plate counts.
Biofilms were then washed in PBS, dispersed by sonication, and collected by pipetting in 100 μL PBS followed by a rinse with 100 μL PBS. Collected cells were then vortexed twice for 20 seconds at high speed and the dispersed biofilm cells were used to determine viable CFUs per ml from diluted samples plated and grown on blood agar. Results are reported as the total number of CFUs per biofilm.

[6] = tested on: Staphylococcus aureus biofilms; assay: Static biofilm model, viable counts; type: cell-based; settings: NRS 1 (VISA) and NRS 384 (VSSA) biofilms; 24 hours; vancomycin 32 μg/mL (21 μM) alone or with ALAFAC
Experimental: Static Biofilm Model. Staphylococci were grown in TSB to mid-logarithmic phase (OD600=0.5), washed, and resuspended in fresh pre-warmed medium to a density of 2×10^4 CFU in 500 μl volume, and suspensions were used to seed polystyrene 24-well plates. Bacteria were cultured at 37° C. for 12 hours, after which biofilms were washed with PBS to eliminate planktonic bacteria and were exposed to TSB with indicated concentrations of ALAFAC and/or antibiotics for 24 hours at 37° C. Biofilms were then washed in PBS, sonicated and detached by scraping the surface in the presence of 100 μL PBS followed by a rinse with 100 μL PBS. Collected cells were vortexed twice for 20 seconds at high speed and the dispersed biofilm cells were first observed by microscopy to ensure proper dispersion and then diluted in a 10-fold dilution series where 100 μl of each dilution was plated on blood agar plates to determine viable CFUs per ml after overnight growth at 37° C. Colony counts from plates carrying 20-200 colonies were used to determine the viable counts and are reported as the total number of colony-forming units per biofilm.

- Effect of inhibitor on ALAFAC antibiotic potentiation in MIC assay (Staphylococcus aureus [1]; NRS 123, methicillin + ALAFAC, Ruthenium Red 30 μM, Amiloride 1 mM): completely abolished
Structure (SMILES): N=C(N)NC(=O)c1nc(Cl)c(N)nc1N [Amiloride]
- Effect of inhibitor on ALAFAC-associated membrane depolarization (NRS 123 Staphylococci): completely abolished
- Transmembrane proton gradient (intracellular pH) (NRS 384 Staphylococci): did not fully inhibit

Structure (SMILES): CCCCCCCC/C=C\CCCCCCCC(=O)O [oleic acid]
- Bactericidal activity (FIG. 1) (Streptococcus pneumoniae [2]; S. pneumoniae D39): considerably higher

Structure (SMILES): CCCCC/C=C\C/C=C\CCCCCCCC(=O)O [linoleic acid]
- Bactericidal activity (FIG. 1) (Streptococcus pneumoniae [2]; S. pneumoniae D39): considerably higher

- MIC (Staphylococcus aureus [1]; S. aureus NRS123, antibiotic alone, read-out: MIC): 0.5 µg/mL
- MIC (Staphylococcus aureus [1]; S. aureus NRS384, antibiotic alone, read-out: MIC): 16 µg/mL
- MIC (Streptococcus pneumoniae [4]; S. pneumoniae D39): 0.03 µg/mL
- MIC (Streptococcus pneumoniae [4]; S. pneumoniae JY53 (erythromycin-resistant)): 3 µg/mL
Structure (SMILES): CC[C@H]1OC(=O)[C@H](C)[C@@H](O[C@H]2C[C@@](C)(OC)[C@@H](O)[C@H](C)O2)[C@H](C)[C@@H](O[C@@H]2O[C@H](C)C[C@H](N(C)C)[C@H]2O)[C@](C)(O)C[C@@H](C)C(=O)[C@H](C)[C@@H](O)[C@]1(C)O [Erythromycin, erythromycin]
- MBC (Staphylococcus aureus [3]; NRS123, S. aureus NRS123, antibiotic alone, read-out: MBC): 16 µg/mL (≈ 21.8 µM)
- MBC (Staphylococcus aureus [3]; NRS384, S. aureus NRS384, antibiotic alone, read-out: MBC): > 256 µg/mL
- Biofilm killing ([5]; D39 48 h biofilm (8.7 log10), erythromycin 500 μg/ml alone or with 250 μg/ml ALAFAC): no bactericidal effects
- Minimum antibiotic concentration for bactericidal (>3 log10) activity on biofilms ([5]; S. pneumoniae D39 biofilm): >1000 μg/ml
- Minimum antibiotic concentration for bactericidal (>3 log10) activity on biofilms ([5]; S. pneumoniae JY53 biofilm): >1000 μg/ml
- Short-time killing (Streptococcus pneumoniae [2]; D39, 4 hours, ALAFAC 50 μg/ml, erythromycin 200 μg/ml, alone or combined, 7.2 log10 inoculum): insignificant bactericidal activity
- Bactericidal activity alone (Streptococcus pneumoniae [2]; D39 and EF3030, 1 hour, penicillin G up to 5,000 μg/ml, erythromycin up to 1,000 μg/ml): lacked any bactericidal activity
- Minimum antibiotic concentration for bactericidal (>3 log10) activity, planktonic (Streptococcus pneumoniae [2]; S. pneumoniae D39): >1,000 μg/ml
- Minimum antibiotic concentration for bactericidal (>3 log10) activity, planktonic (Streptococcus pneumoniae [2]; S. pneumoniae JY53): >1000 μg/ml

Structure (SMILES): CN[C@H](CC(C)C)C(=O)N[C@H]1C(=O)N[C@@H](CC(N)=O)C(=O)N[C@H]2C(=O)N[C@H]3C(=O)N[C@H](C(=O)N[C@H](C(=O)O)c4cc(O)cc(O)c4-c4cc3ccc4O)[C@H](O)c3ccc(c(Cl)c3)Oc3cc2cc(c3O[C@@H]2O[C@H](CO)[C@@H](O)[C@H](O)[C@H]2O[C@H]2C[C@](C)(N)[C@H](O)[C@H](C)O2)Oc2ccc(cc2Cl)[C@H]1O [Vancomycin, vancomycin]
- MBC (Staphylococcus aureus [3]; NRS1): 32 µg/mL (≈ 22.1 µM)
- MBC (Staphylococcus aureus [3]; NRS384): 16 µg/mL (≈ 11 µM)
- Biofilm killing [6]: almost complete insensitivity
- MIC (Staphylococcus aureus [1]; NRS1): 8 µg/mL
- MIC (Staphylococcus aureus [1]; NRS384): 1 µg/mL
